Results from US20150258197A1, “EUTECTIC ISOMETHEPTENE MUCATE” (TONIX PHARMA HOLDINGS LIMITED, priority 2014, published 2015).

Key:
Format in all cases: physicochemical
[1] = Excipient compatibility of racemic isometheptene mucate by DSC/XRPD (1:1 mixtures); settings: 1:1 weight ratio, ground in agate mortar, DSC (XRPD for mannitol)
Experimental: (§1) Thermal analytical techniques were used to assess the compatibility of a drug product containing racemic isometheptene mucate. The compatibility assessment was carried out between the racemic isometheptene mucate and a number of possible excipients in a 1:1 weight ratio. Based on the thermal events recorded for each component and for the mixtures, the analyses were carried out by investigating the peaks recorded by differential scanning calorimetry (DSC) in mixture between racemic isometheptene mucate and the excipients. Differences in thermal profiles between the single compound and the related mixture obtained after milling the products in an agate mortar were evaluated.
Aliquots of racemic isometheptene mucate and each excipient were weighed in a ratio of 1:1 (unless specified otherwise) and ground in an agate mortar. The homogeneous mixtures then were analyzed.
(§2) The DSC heating curves were obtained with a TA 821 DSC Mettler instrument under the following conditions:
(§3) Heating rate: 10° C./min Ambient: Nitrogen 30 mL/min Sample holder: normal open aluminum pan Temperature range: from 25° C. to 250° C. Instrument calibration: Indium sample purity 99.999%
X-ray powder diffraction (XRPD) tests were performed with the ULTIMA IV instrument (Rigaku), laying the sample on a static sample holder. The X-ray focusing slit has a variable width, interlocked with the q value. The X-ray tube has a copper target, with a current intensity of 40 mA and a voltage of 40 kV. Radiation was generated by the Cockcroft-Walton method, and was constituted by K+1 (1.540562 Å) and Kα2 (1.544398 Å). The analytical conditions were:
(§4) Fixed Time; sampling width 0.02 deg, scanning rate 1.3 s/step, 2 q range 3.35 deg and sample holder; amorphous glass equiangular 9200/2G, 0.2 mm deep. The sample was pressed with a glass plate.

[2] = DSC/XRPD of 75:25 mixtures of (R)-isometheptene salts and β-mannitol; settings: for Physical interaction with β-mannitol: 75:25 salt:mannitol, dry-granulated or wet-granulated, DSC confirmed by XRPD; for Eutectic formation with mannitol: (R)-isometheptene salts other than mucate, 75:25 with β-mannitol
Experimental: Thermal analytical techniques were used to analyze mixtures of several (R)-isometheptene salts and β-mannitol in a ratio of 75:25. (R)-isometheptene salts tested were as follows: (R)-isometheptene maleate, (R)-isometheptene malate, and (R)-isometheptene tartrate. Based on the thermal events recorded for each component and for the mixtures, the analyses were carried out by investigating the peaks recorded by differential scanning calorimetry (DSC) in mixture between (R)-isometheptene mucate and the excipients. Differences in thermal profiles between the single compound and the related mixture were evaluated.
Aliquots of (R)-isometheptene salts and each excipient were weighed in a ratio of 1:1 (unless specified otherwise) and ground in an agate mortar with (wet-granulation) or without (dry-granulation) a small amount of water. The homogeneous mixtures then were analyzed.
as §2, §3
(§5) X-ray powder diffraction (XRPD) tests were performed with the ULTIMA IV instrument (Rigaku), laying the sample on a static sample holder. The X-ray focusing slit has a variable width, interlocked with the q value. The X-ray tube has a copper target, with a current intensity of 40 mA and a voltage of 40 kV. Radiation was generated by the Cockcroft-Walton method, and was constituted by Kα1 (1.540562 Å) and Kα2 (1.544398 Å). The analytical conditions were:
as §4

[3] = Excipient compatibility of (R)-isometheptene mucate by DSC/XRPD (1:1 mixtures); settings: 1:1 weight ratio, ground in agate mortar, DSC
Experimental: as §1, with “mucate (API).” for “mucate.”
Aliquots of (R)-isometheptene mucate and each excipient were weighed in a ratio of 1:1 (unless specified otherwise) and ground in an agate mortar. The homogeneous mixtures then were analyzed.
as §2, §3, §5, §4

[4] = DSC/XRPD of binary mixtures of isometheptene mucate and mannitol (eutectic formation); settings: binary mixtures at different ratios
Experimental: Because mannitol is a common excipient in solid drug formulations, it was examined for compatibility with racemic isometheptene mucate and investigated using DSC and the interactions occurring were assessed. […] To confirm the formation of a eutectic and to characterize its physical properties, several binary mixtures at different ratios of racemic isometheptene mucate and excipient were prepared and analyzed by DSC and by XRPD. The eutectic formation improved the cohesion between the racemic isometheptene mucate and excipient particles and assured better physical linking between the two.
In order to confirm the eutectic formation and to characterize its physical properties, several binary mixtures at different ratios of racemic isometheptene mucate-excipient were prepared and analyzed by DSC and by X-ray powder diffraction (XRPD). […] For each DSC heating curve, the onset temperature and the enthalpy were evaluated both for the eutectic contribute and for the excess of component. The recorded values were plotted and a phase diagram between the two components was obtained with a characteristic profile of phase diagrams of eutectic mixtures. […]
Aliquots of racemic isometheptene mucate API and mannitol were weighed in the ratios described below and ground in an agate mortar, and the homogeneous mixtures subsequently analyzed. […]

Compound | Excipient reactions with API (racemic isometheptene mucate), Mixture 1:1 [1] | Physical interaction with β-mannitol [2] | Eutectic formation with mannitol [2] | Excipient reactions with (R)-isometheptene mucate, Mixture 1:1 [3] | also measured
CCCCCCCCCCCCCCCCCC(=O)O [Stearic acid] | YES |  |  |  | Excipient reactions with API (racemic isometheptene mucate), Mixture 1:1 ([1]; listed as stearic acid): physical interaction was observed
CN[C@H](C)CCC=C(C)C.O=C(O)/C=C\C(=O)O [(R)-isometheptene maleate] |  | No physical interaction was observed | do not form a eutectic composition |  | 
CN[C@H](C)CCC=C(C)C.O=C(O)CC(O)C(=O)O [(R)-isometheptene malate] |  | No physical interaction was observed | do not form a eutectic composition |  | 
OC[C@@H](O)[C@@H](O)[C@H](O)[C@H](O)CO [Mannitol SD200] |  |  |  | Physical interaction (complex) | Excipient reactions with (R)-isometheptene mucate, Mixture 1:1 ([3]; listed as mannitol SD200): Physical interaction was observed; Excipient reactions with API (racemic isometheptene mucate), Mixture 1:1 ([1]; listed as mannitol SD200): Physical interaction was observed
CNC(C)CCC=C(C)C.CNC(C)CCC=C(C)C.O=C(O)[C@@H](O)[C@H](O)[C@H](O)[C@@H](O)C(=O)O (racemic) [racemic isometheptene mucate, reference compound] |  |  |  |  | Interaction with mannitol (eutectic vs adduct) [4]: only a physical eutectic formation
OC[C@@H](O)[C@@H](O)[C@H](O)[C@H](O)CO [Mannitol] | Physical interaction (complex) |  |  |  | Excipient reactions with API (racemic isometheptene mucate), Mixture 1:1 ([1]; listed as mannitol): Physical interaction was observed
CN[C@H](C)CCC=C(C)C.O=C(O)C(O)C(O)C(=O)O [(R)-isometheptene tartrate] |  | No physical interaction was observed | do not form a eutectic composition |  | 
Isomalt | No interaction reported |  |  | No interaction reported | 
Magnesium stearate | YES |  |  | YES | Excipient reactions with (R)-isometheptene mucate, Mixture 1:1 ([3]; listed as magnesium stearate): small physical interaction was observed; Excipient reactions with API (racemic isometheptene mucate), Mixture 1:1 ([1]; listed as magnesium stearate): small physical interaction was observed
